Tests used:
KOPT-K1 cells [1] = format: cell-based
KOPT-K1 cells [2] = experiment: In vitro drug wash-out assay, cell growth; format: cell-based; settings: 100nM for 18 hours, then drug-free media
[3] = Cytotoxicity in peripheral blood mononuclear cells; settings: human, peripheral blood mononuclear cells (PBMCs)
in vivo = settings: NSG, mouse, plasma, ip, 10 mg/kg
[4] = Cytotoxicity in CD34+ cells from healthy donors; settings: human, CD34+ cells from cord blood of healthy donors

| AUC (in vivo) [ng·h/mL] | half-life (in vivo) [min] | SMILES | effect on T-ALL survival and growth (KOPT-K1 cells [1]; single agent) | time post drug removal at which cells began to recover (KOPT-K1 cells [2]) [h] | effect of lenalidomide on LC50 (KOPT-K1 cells [1]) | effect of CRBN deletion (CRBN^KO) on cell sensitivity (KOPT-K1 cells [1]; CRBN^KO vs CRBN^WT KOPT-K1, 72 hours) | CC50 at 72 h [3] [µM] | CC50 at 72 h [4] [µM] |
| --- | --- | --- | --- | --- | --- | --- | --- | --- |
|  |  | Nc1cccc2c1CN(C1CCC(=O)NC1=O)C2=O (centres unmarked) [lenalidomide] | no effect |  |  |  |  |  |
| 1400 | 55.2 | Cc1nc(Nc2ncc(C(=O)Nc3c(C)cccc3Cl)s2)cc(N2CCN(CCO)CC2)n1 [dasatinib] |  | 96 | did not alter | did not alter cell sensitivity | 0.00281 | 0.0929 |
